Test results reported in patent US20240336640A1, “CALCIUM OXALATE CRYSTALLIZATION INHIBITORS FOR RENAL DISORDERS” (VIFOR (INTERNATIONAL) AG, priority 2018, published 2024).
Counter-ions that a name gives are not always drawn.

Experiment: CaOx crystallization inhibition assay in human urine, pH 6.2
Settings: human urine pH 6.2, 1 mM sodium oxalate, 7 h, light microscopy
Description: For comparison of the compounds' efficacy to inhibit calcium oxalate (CaOx) crystallization a simple in vitro assay in urine was used. In brief, human urine (pH 6.2) was mixed with compound, followed by the addition of 1 mM sodium oxalate inducing CaOx crystallization. After 7 hours of incubation at room temperature crystallization was measured by light microscopy, employing an automated image analysis to detect, classify and quantify the CaOx crystal types formed, namely CaOx monohydrate (COM) and CaOx dihydrate (COD).
Human urine was stored at −20° C. in 50 mL aliquots. After thawing, aliquots were centrifuged, filtered using a 0.45-μm syringe filter and pH set to 6.2. Oxalate concentrations of human urine samples were determined using the Oxalate Assay kit following the kit protocol, and found to be <100 μM for the samples used. Dilutions of sodium and compounds were prepared in Bis Tris buffer (50 mM, 150 mM NaCl, pH 6.2). Urine was mixed with compound in Eppendorf tubes, and subsequently sodium oxalate was added. The final assay mixture of 1 mL total volume contained 90% urine, 5% sodium oxalate (1 mM) and 5% compound dilution. Immediately upon sodium oxalate addition, the final assay mixture was vortexed and added to the imaging slide (8 well glass bottom chamber, ibidi). 400 μL per well were added and two wells for each sample were prepared. Crystallization was assessed after 7 h incubation at room temperature, using a Leica CTR6000 microscope (Leica Microsystems, Wetzlar, Germany) in brightfield mode. For visualization, images with a 40× objective were used. For quantification 2 wells/sample with five 20× objective images each were used. Without addition of sodium oxalate no crystallization was observed.
Quantification and classification of crystals was performed in Matlab (version R2016b or R2018b). In brief, crystals were segmented using edge detection and watershed algorithms and subsequently shape, intensity and texture features for each crystal were extracted. The extracted features served as input for a semi-supervised classification approach to distinguish COM (class 0), COD (class 1), not determined structures (class 2) and background noise (class 3). A cubic support vector machine (SVM) classifier was trained and subsequently used for classification of testing images.
All testing images were processed using the Batch Processing App. Efficacy of compounds to inhibit CaOx crystallization was compared by analysing the total area per field of view for each crystal type. The sum of the total area of the three crystal classes—COM, COD and unclassified, was normalized to the control within each experiment (N=3). Due to the inherent variability of the crystallization process itself, normalization within each experiment decreased the effect of inter-experimental variability.

Structure (SMILES) | 50% complete inhibition (<50% total area) [µM] | COM inhibition (<5% of total area) [µM] | Complete inhibition (i.e <5% total area) [µM]
COCCOCCO[C@@H]1C(OP(=O)(O)O)[C@H](OCCOCCOC)[C@@H](OP(=O)(O)O)C(OP(=O)(O)O)[C@H]1OP(=O)(O)O (stereo partly drawn) [(OEG2)2-IP4] | >100 | >100 | >100
O=C(O)CC(O)(CC(=O)O)C(=O)O [Citrate, Trisodium citrate dihydrate] | >100 | >100 | >100
O=P(O)(O)O[C@H]1[C@H](OP(=O)(O)O)[C@@H](OP(=O)(O)O)[C@H](OP(=O)(O)O)[C@@H](OP(=O)(O)O)[C@H]1OP(=O)(O)O [IP6, inositol hexaphosphate] | 30 | 3 | >30
COCCOCCOCCOCCOCCOCCOCCOCCOCCOCCOCCO[C@@H]1[C@@H](OP(=O)(O)O)[C@H](OP(=O)(O)O)[C@@H](OP(=O)(O)O)[C@@H](OP(=O)(O)O)[C@H]1OP(=O)(O)O [OEG11-IP5] | 11 | 100 | >100
